The values that follow come from US20170319532A1, “METHODS AND FORMULATIONS FOR TREATMENT AND/OR PREVENTION OF BLOOD-ASSOCIATED DISORDERS” (TWi Biotechnology, Inc., priority 2016, published 2017).

In the assay the test system is hemophilic arthropathy rat model (knee joint swelling). The assay can be described thus: Joint swelling in rat hemophilic arthropathy model induced by intraarticular injection of whole blood. The format is in vivo, female Lewis rats. The following applies: for % change of joint swelling: left vs right knee oval area, p<0.05. The method, then:
A total of 8 female Lewis rats were used for hemophilia arthropathy (HA) study. The animals were specific pathogen free and approximately 6 to 7 weeks old upon start dosing.
Animals were randomized into 2 groups on Day 1 and started to receive diacerein or vehicle treatments throughout the study of 10 days. On Day 4 and Day 8, treatment was performed 1 hour before HA model induction. For HA induction, under anesthesia with 1.5-5% isoflurane (inhalation anesthesia machine, Matrix vip 3000 isoflurane), blood was collected from orbital sinus of each rat and immediately, 0.1 ml of whole blood was intraarticular injected into the cavity of left knee using syringe with 27G needle. The blood was anti-coagulated with EDTA-2K. Body weight and joint swelling measurement were assessed 4 hours post-dosing every day.
The longitudinal and transverse axes of both knee joints were measured with calipers on Day 1 (pre-dose), Day 4 (pre-dose), and Day 4-10 (4 hours post-dose). The oval area of knee joints and % change of joint swelling was calculated using the following formula:
Oval area=longitudinal axis×transverse axis×3.14×0.25% change of joint swelling=(Oval area left−Oval area right)/Oval area right×100%

As to `CC(=O)Oc1cccc2c1C(=O)c1c(OC(C)=O)cc(C(=O)O)cc1C2=O` [diacerein, 4,5-bis (acetyloxy) 9,10-dihydro-4,5-dihydroxy-9,10-dioxo-2-anthracenecarboxylic acid], the “% change of joint swelling” value stood at 10.02±3.54% (Day 8, the second hemophilia arthropathy induction, vehicle 22.57±3.77%) and 0.50±3.28% (Day 10, end of the study, vehicle 13.51±4.78%). For the same compound, the “joint swelling (qualitative)” value (hemophilic arthropathy rat model, compared with vehicle) was “suppressed joint swelling”.
